Marks after values point to notes of the source that are not given here.
Key:
[1] = cited from earlier work
HeLa cells = experiment: Apoptosis by V450 Annexin V / propidium iodide flow cytometry; assay type: cell-based
Text: Staining with V450 Annexin V (BD Biosciences) was used to analyse the percentage of cells within a population that are actively undergoing apoptosis. Propidium Iodide (PI) is a standard DNA-staining flow cytometric viability probe and is used to distinguish viable from nonviable cells. Cells that stain positive for V450 Annexin V and negative for PI are undergoing apoptosis. Cells that stain positive for both V450 Annexin V and PI are either in the end stages of apoptosis, are undergoing necrosis, or are already dead. Cells that stain negative for both V450 Annexin V and PI are alive and not undergoing measurable apoptosis.
For this reason these cells were chosen to evaluate the effects of these compounds on cell death. A 2 ml aliquot of growth medium containing 20,000 cells was seeded into each well of a 6 well plate. […] The growth medium was removed and retained and the cells washed with PBS followed by Incubation with 1 ml of Accutase (Life Technologies, Paisley, UK, Catalog Number A11105-01) per well for 15 mins. The original growth medium was then added back to neutralise the Accutase, and this centrifuged at 1,200 rpm for 5 mins to pellet the cells and this repeated twice with cold PBS. The cell pellet was finally re-suspended in 1× binding buffer (10×=0.1 M Hepes (pH 7.4), 1.4 M NaCl, 25 mM CaCl2) at a concentration of 10^6 cell/ml. A 100 μl aliquot containing 10^5 cells was removed and placed in a 5 ml culture tube and 5 μl of V450 Annexin V added plus 10 μl PI (50 μg/ml) added. The cells were gently mixed and incubated at room temperature for 15 min in the dark then 400 μl of 1× binding buffer was added prior to being analysed by flow cytometry using a Cyan ADP instrument (Beckman Coulter) and Summit software within one hour of the above procedure. The Annexin fluorochrome was excited using a 405 nm laser and the emission measured using a 450/50 nm bandpass filter. The PI was excited using a 488 nm laser and the emission detected using a 613/20 nm bandpass filter. The data was gated to select single cells using a plot of forward scatter against pulse width, and to exclude debris using forward scatter plotted against side scatter. All cytometry assays shown were the result of three separate cultures and intra-assay variability was also assessed by repeating the same drug treatment assay (1:1 Lop/Rit) three times. Unstained cells and cells stained separately with either V450 Annexin V or PI were used as controls to optimise compensation and gating of the cytometer.

SiHa cells = experiment: CellTitre 96 AQ colorimetric cell growth assay; assay type: cell-based; conditions: 5 μM, 0-72 hours
Procedure: SiHa cells were grown in RPMI plus 10% FBS and HeLa in DMEM plus 10% FBS. These were seeded at 2000 cells/well for HeLa and 5000 cells/well for SiHa in triplicate into standard tissue culture grade 96 well plates and incubated overnight at 37° C./5% CO2. […] At each time point 20 μl of CellTitre 96® AQ reagent (Promega) was then added to three separate wells per data point and the absorbance (OD490) read after 1 hour at 37° C. The CellTitre 96® AQ reagent is a water soluble MTS formazan version of the well-known MTT reagent which produces a colorimetric readout that is directly proportional to the number of viable cells present.

glioma = conditions: ritonavir alone; cited from earlier work
[2] = tested on: more advanced invasive cervical disease; conditions: cited from earlier work
[3] = tested on: pre-invasive cells derived from the cervix; conditions: cited from earlier work
CIN2 lesions = conditions: young women aged 18-29; topical, physician applied, 16 weeks; cited from earlier work
CIN2/3 = conditions: topical application; cited from earlier work
HPV infection = conditions: hybrid capture 2 assay; cited from earlier work
CIN and HPV infections = conditions: cited from earlier work

## Cc1cccc(C)c1OCC(=O)N[C@@H](Cc1ccccc1)[C@@H](O)C[C@H](Cc1ccccc1)NC(=O)[C@H](C(C)C)N1CCCNC1=O (relative stereo) [lopinavir, [1S-[1R*(R*), 3R*, 4R*]]—N-[4-[(2,6-dimethylphenoxy0acetyl]amino]-3-hydroxy-5-phenyl-1-(phenylmethyl)pentyl]tetrahydro-alpha-(1-methylethyl)-2-oxo-1 (2H)-pyrimidineacetamide]
[1]
  solubility in water: virtually insoluble in water
HeLa cells; 48 hrs, total dose 25 μM, concentrations (μM) in the label
  R4 gate Mean (percentage of cells in quadrant R4, late stage apoptosis): 21.8000%
HeLa cells; 48 hrs, versus DMSO control
  Mean Difference to DMSO, R4 gate (Dunnett t): 15.38*
HeLa cells; total dose 25 μM, R4 and R6+R4
  level of apoptosis compared between treatments (FIG. 13): less effective than any of the combination treatments
HeLa cells; versus Lop20Rit5
  Mean Difference, R4 gate (Bonferonni): −13.45*

## CC(C)c1nc(CN(C)C(=O)N[C@H](C(=O)N[C@@H](Cc2ccccc2)C[C@H](O)[C@H](Cc2ccccc2)NC(=O)OCc2cncs2)C(C)C)cs1 (relative stereo) [ritonavir, 10-Hydroxy-2-methyl-5-(1-methylethl)-1-[2-(1-methylethyl)-4-thiazolyl]-3,6-dioxo-8, 11bis(phenylmethyl)-2,4,7,12-tetraazatridecan-13-oic acid, 5-thiazolylmethylester, [5S-(5R*,8R*,10R8,11R*)]]
SiHa cells
  effect on cell growth (OD490): no effect
glioma
  effect against glioma in vivo: no effect
[2]
  efficacy against more advanced invasive cervical disease: not effective
[3]
  activity against pre-invasive cells derived from the cervix: has shown activity

## O=c1[nH]cc(F)c(=O)[nH]1 [5FU]
CIN2 lesions
  effective against CIN2 lesions: > 90%

## Nc1ccn(C[C@@H](CO)OCP(=O)(O)O)c(=O)n1 [Cidofovir]
CIN2/3
  clearance of CIN: ~60%
HPV infection
  elimination of HPV infection: did not eliminate HPV infection

## CC(C)Cn1cnc2c(N)nc3ccccc3c21 [Imiquimod]
CIN and HPV infections; before and after LEEP, treatment >8 weeks
  effect against CIN and HPV infections: some effect
CIN and HPV infections; direct application to the cervix
  side effects: quite severe
